{"source": "the supplement of paper PMC10307832", "test_in_all_cases": "relative viability (nuclei count vs DMSO), 5 days (fraction); higher = more cells survive", "key": {"COR-L 105": {"test_system": "COR-L 105", "how_it_was_run": "(§1)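 Five library-drug doses in √10 steps were combined with a fixed anchor-drug dose, or a single drug was given alone, by pin tool to lung cancer cell lines in 1536-well plates the day after seeding. Nuclei were stained and counted after 5 days. Relative viability is the nuclei count in treated wells over that in vehicle wells, taken as the median of duplicate plates.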"}, "NCI-H1792": {"test_system": "NCI-H1792", "how_it_was_run": "as §1"}, "NCI-H1650": {"test_system": "NCI-H1650", "how_it_was_run": "as §1"}, "NCI-H1651": {"test_system": "NCI-H1651", "how_it_was_run": "as §1"}, "NCI-H727": {"test_system": "NCI-H727", "how_it_was_run": "as §1"}, "NCI-H647": {"test_system": "NCI-H647", "how_it_was_run": "as §1"}, "NCI-H2087": {"test_system": "NCI-H2087", "how_it_was_run": "as §1"}, "HCC-827": {"test_system": "HCC-827", "how_it_was_run": "as §1"}, "NCI-H1975": {"test_system": "NCI-H1975", "how_it_was_run": "as §1"}, "H3255": {"test_system": "H3255", "how_it_was_run": "as §1"}, "201T": {"test_system": "201T", "how_it_was_run": "as §1"}, "UMC-11": {"test_system": "UMC-11", "how_it_was_run": "as §1"}, "NCI-H1437": {"test_system": "NCI-H1437", "how_it_was_run": "as §1"}, "NCI-H838": {"test_system": "NCI-H838", "how_it_was_run": "as §1"}, "HCC-44": {"test_system": "HCC-44", "how_it_was_run": "as §1"}, "EKVX": {"test_system": "EKVX", "how_it_was_run": "as §1"}, "COR-L23": {"test_system": "COR-L23", "how_it_was_run": "as §1"}, "EPLC-272H": {"test_system": "EPLC-272H", "how_it_was_run": "as §1"}, "HCC-15": {"test_system": "HCC-15", "how_it_was_run": "as §1"}, "NCI-H520": {"test_system": "NCI-H520", "how_it_was_run": "as §1"}}, "data": [{"compound": "CCCCCCCCCCCC1=C(O)C(=O)C=C(O)C1=O", "note": "[Embelin] + CC1(C)CCC(c2ccc(Cl)cc2)=C(CN2CCN(c3ccc(C(=O)NS(=O)(=O)c4ccc(N[C@H](CCN5CCOCC5)CSc5ccccc5)c(S(=O)(=O)C(F)(F)F)c4)cc3)CC2)C1 [Navitoclax] (partner 0.5 µM)", "values": [{"measurement": "relative viability", "setting": "COR-L 105; first compound 0.08 µM", "result": 0.758}, {"measurement": "relative viability", "setting": "COR-L 105; first compound 0.8 µM", "result": 1.04}, {"measurement": "relative viability", "setting": "COR-L 105; first compound 2.53 µM", "result": 0.748}, {"measurement": "relative viability", "setting": "COR-L 105; first compound 8 µM", "result": 0.795}, {"measurement": "relative viability", "setting": "NCI-H1792; first compound 0.08 µM", "result": 0.593}, {"measurement": "relative viability", "setting": "NCI-H1792; first compound 0.8 µM", "result": 0.649}, {"measurement": "relative viability", "setting": "NCI-H1792; first compound 2.53 µM", "result": 0.892}, {"measurement": "relative viability", "setting": "NCI-H1792; first compound 8 µM", "result": 0.669}, {"measurement": "relative viability", "setting": "NCI-H1650; first compound 0.08 µM", "result": 1.27}, {"measurement": "relative viability", "setting": "NCI-H1650; first compound 0.8 µM", "result": 1.37}, {"measurement": "relative viability", "setting": "NCI-H1650; first compound 2.53 µM", "result": 1.57}, {"measurement": "relative viability", "setting": "NCI-H1650; first compound 8 µM", "result": 1.36}, {"measurement": "relative viability", "setting": "NCI-H1651; first compound 0.08 µM", "result": 0.926}, {"measurement": "relative viability", "setting": "NCI-H1651; first compound 0.8 µM", "result": 1.19}, {"measurement": "relative viability", "setting": "NCI-H1651; first compound 2.53 µM", "result": 1.02}, {"measurement": "relative viability", "setting": "NCI-H1651; first compound 8 µM", "result": 1.09}, {"measurement": "relative viability", "setting": "NCI-H727; first compound 0.08 µM", "result": 0.4}, {"measurement": "relative viability", "setting": "NCI-H727; first compound 0.8 µM", "result": 0.537}, {"measurement": "relative viability", "setting": "NCI-H727; first compound 2.53 µM", "result": 0.435}, {"measurement": "relative viability", "setting": "NCI-H727; first compound 8 µM", "result": 0.392}, {"measurement": "relative viability", "setting": "NCI-H647; first compound 0.08 µM", "result": 1.25}, {"measurement": "relative viability", "setting": "NCI-H647; first compound 0.8 µM", "result": 1.35}, {"measurement": "relative viability", "setting": "NCI-H647; first compound 2.53 µM", "result": 1.21}, {"measurement": "relative viability", "setting": "NCI-H647; first compound 8 µM", "result": 1.2}, {"measurement": "relative viability", "setting": "NCI-H2087; first compound 0.08 µM", "result": 0.892}, {"measurement": "relative viability", "setting": "NCI-H2087; first compound 0.8 µM", "result": 1.17}, {"measurement": "relative viability", "setting": "NCI-H2087; first compound 2.53 µM", "result": 0.93}, {"measurement": "relative viability", "setting": "NCI-H2087; first compound 8 µM", "result": 0.989}, {"measurement": "relative viability", "setting": "HCC-827; first compound 0.08 µM", "result": 1}, {"measurement": "relative viability", "setting": "HCC-827; first compound 0.8 µM", "result": 1.09}, {"measurement": "relative viability", "setting": "HCC-827; first compound 2.53 µM", "result": 1.03}, {"measurement": "relative viability", "setting": "HCC-827; first compound 8 µM", "result": 1.04}, {"measurement": "relative viability", "setting": "NCI-H1975; first compound 0.08 µM", "result": 1.13}, {"measurement": "relative viability", "setting": "NCI-H1975; first compound 0.8 µM", "result": 1.29}, {"measurement": "relative viability", "setting": "NCI-H1975; first compound 2.53 µM", "result": 1.13}, {"measurement": "relative viability", "setting": "NCI-H1975; first compound 8 µM", "result": 1.11}, {"measurement": "relative viability", "setting": "H3255; first compound 0.08 µM", "result": 0.516}, {"measurement": "relative viability", "setting": "H3255; first compound 0.8 µM", "result": 0.674}, {"measurement": "relative viability", "setting": "H3255; first compound 2.53 µM", "result": 0.551}, {"measurement": "relative viability", "setting": "H3255; first compound 8 µM", "result": 0.599}, {"measurement": "relative viability", "setting": "201T; first compound 0.08 µM", "result": 1.18}, {"measurement": "relative viability", "setting": "201T; first compound 0.8 µM", "result": 1.19}, {"measurement": "relative viability", "setting": "201T; first compound 2.53 µM", "result": 1.19}, {"measurement": "relative viability", "setting": "201T; first compound 8 µM", "result": 1.17}, {"measurement": "relative viability", "setting": "UMC-11; first compound 0.08 µM", "result": 0.328}, {"measurement": "relative viability", "setting": "UMC-11; first compound 0.8 µM", "result": 0.32}, {"measurement": "relative viability", "setting": "UMC-11; first compound 2.53 µM", "result": 0.319}, {"measurement": "relative viability", "setting": "UMC-11; first compound 8 µM", "result": 0.289}, {"measurement": "relative viability", "setting": "NCI-H1437; first compound 0.08 µM", "result": 1.07}, {"measurement": "relative viability", "setting": "NCI-H1437; first compound 0.8 µM", "result": 1.14}, {"measurement": "relative viability", "setting": "NCI-H1437; first compound 2.53 µM", "result": 1.11}, {"measurement": "relative viability", "setting": "NCI-H1437; first compound 8 µM", "result": 0.707}, {"measurement": "relative viability", "setting": "NCI-H838; first compound 0.08 µM", "result": 1.19}, {"measurement": "relative viability", "setting": "NCI-H838; first compound 0.8 µM", "result": 1.25}, {"measurement": "relative viability", "setting": "NCI-H838; first compound 2.53 µM", "result": 1.2}, {"measurement": "relative viability", "setting": "NCI-H838; first compound 8 µM", "result": 1.18}, {"measurement": "relative viability", "setting": "HCC-44; first compound 0.08 µM", "result": 0.903}, {"measurement": "relative viability", "setting": "HCC-44; first compound 0.8 µM", "result": 0.911}, {"measurement": "relative viability", "setting": "HCC-44; first compound 2.53 µM", "result": 1.07}, {"measurement": "relative viability", "setting": "HCC-44; first compound 8 µM", "result": 0.923}, {"measurement": "relative viability", "setting": "EKVX; first compound 0.08 µM", "result": 0.913}, {"measurement": "relative viability", "setting": "EKVX; first compound 0.8 µM", "result": 0.895}, {"measurement": "relative viability", "setting": "EKVX; first compound 2.53 µM", "result": 0.917}, {"measurement": "relative viability", "setting": "EKVX; first compound 8 µM", "result": 0.938}, {"measurement": "relative viability", "setting": "COR-L23; first compound 0.08 µM", "result": 0.991}, {"measurement": "relative viability", "setting": "COR-L23; first compound 0.8 µM", "result": 1.32}, {"measurement": "relative viability", "setting": "COR-L23; first compound 2.53 µM", "result": 1.19}, {"measurement": "relative viability", "setting": "COR-L23; first compound 8 µM", "result": 1.22}, {"measurement": "relative viability", "setting": "EPLC-272H; first compound 0.08 µM", "result": 1.07}, {"measurement": "relative viability", "setting": "EPLC-272H; first compound 0.8 µM", "result": 1.34}, {"measurement": "relative viability", "setting": "EPLC-272H; first compound 2.53 µM", "result": 1.21}, {"measurement": "relative viability", "setting": "EPLC-272H; first compound 8 µM", "result": 1.11}, {"measurement": "relative viability", "setting": "HCC-15; first compound 0.08 µM", "result": 0.659}, {"measurement": "relative viability", "setting": "HCC-15; first compound 0.8 µM", "result": 0.773}, {"measurement": "relative viability", "setting": "HCC-15; first compound 2.53 µM", "result": 0.718}, {"measurement": "relative viability", "setting": "HCC-15; first compound 8 µM", "result": 0.693}, {"measurement": "relative viability", "setting": "NCI-H520; first compound 0.08 µM", "result": 1.24}, {"measurement": "relative viability", "setting": "NCI-H520; first compound 0.8 µM", "result": 1.26}, {"measurement": "relative viability", "setting": "NCI-H520; first compound 2.53 µM", "result": 1.07}, {"measurement": "relative viability", "setting": "NCI-H520; first compound 8 µM", "result": 1.04}]}]}
